In ChEMBL document CHEMBL5537135, “Novel antimicrobial peptides modified with fluorinated sulfono-γ-AA having high stability and targeting multidrug-resistant bacteria infections” (Eur J Med Chem, 2024):
Values after ≈ are worked out from the molar mass of the structure shown. Active and inactive are the calls of the source. The calls are words filed in the database; no cut-off is given here. Numbered stars: 1 amine (or outer) side, 2 acyl side, 3 side chain; on linkers, the order of the positions; unused ones are H or OH. Square brackets hold non-standard residues; d marks the D form. Peptide text beside a SMILES is read from it. * marks the point of attachment. X3 = CC(C)C[C@@H](CN(CC(N)=O)S(=O)(=O)c1ccc(C(F)(F)F)cc1)N*; X2 = CC(C)C[C@H](N)CN(CC(=O)[*:2])[*:1]; X1 = O=S(=O)(c1ccc(C(F)(F)F)cc1)*

Legend:
Staphylococcus aureus [1] = assay: Antimicrobial activity against methicillin-resistant Staphylococcus aureus ATCC 33591 assessed as inhibition of visible bacterial growth incubated for 18 hrs by broth-dilution method; format: functional
Pseudomonas aeruginosa [2] = assay: Antimicrobial activity against multidrug-resistant Pseudomonas aeruginosa 050 assessed as inhibition of visible bacterial growth incubated for 18 hrs by broth-dilution method; format: functional
Pseudomonas aeruginosa [3] = assay: Antimicrobial activity against multidrug-resistant Pseudomonas aeruginosa 061 assessed as inhibition of visible bacterial growth incubated for 18 hrs by broth-dilution method; format: functional
Pseudomonas aeruginosa [4] = assay: Antimicrobial activity against Pseudomonas aeruginosa ATCC 27853 at 1 times MIC incubated for 18 hrs in presence of LPS/LTA; format: functional, organism-based
Staphylococcus aureus [5] = assay: Antibiofilm activity against methicillin-resistant Staphylococcus aureus ATCC 33591 assessed as biofilm eradication at 4 times MIC incubated for 2 to 4 hrs by crystal violet staining based assay; format: functional, organism-based; settings: time 2-4 hrs
Staphylococcus aureus [6] = assay: Antimicrobial activity against Staphylococcus aureus ATCC 25923 assessed as reduction in bacterial growth in presence of human serum; format: functional
Staphylococcus aureus [7] = assay: Antimicrobial activity against methicillin-resistant Staphylococcus aureus 10 assessed as inhibition of visible bacterial growth incubated for 18 hrs by broth-dilution method; format: functional
Pseudomonas aeruginosa [8] = assay: Bactericidal activity against Pseudomonas aeruginosa ATCC 27853 at 2 to 4 times MIC; format: functional, organism-based
Staphylococcus aureus [9] = assay: Antimicrobial activity against methicillin-resistant Staphylococcus aureus 6 assessed as inhibition of visible bacterial growth incubated for 18 hrs by broth-dilution method; format: functional
Pseudomonas aeruginosa [10] = assay: Antimicrobial activity against Pseudomonas aeruginosa ATCC 27853 assessed as reduction in microbial growth in presence of human serum; format: functional
Pseudomonas aeruginosa [11] = assay: Antimicrobial activity against multidrug-resistant Pseudomonas aeruginosa 124 assessed as inhibition of visible bacterial growth incubated for 18 hrs by broth-dilution method; format: functional
Staphylococcus aureus [12] = assay: Bactericidal activity against Staphylococcus aureus ATCC 33591 at 2 to 4 times MIC; format: functional, organism-based
Pseudomonas aeruginosa [13] = assay: Antimicrobial activity against multidrug-resistant Pseudomonas aeruginosa 157 assessed as inhibition of visible bacterial growth incubated for 18 hrs by broth-dilution method; format: functional
Staphylococcus aureus [14] = assay: Antibiofilm activity against methicillin-resistant Staphylococcus aureus ATCC 33591 assessed as biofilm thickness at 1 times MIC90 incubated for 24 hrs by confocal laser scanning microscopic analysis; format: functional
Pseudomonas aeruginosa [15] = assay: Antimicrobial activity against Pseudomonas aeruginosa ATCC 27853 assessed as inhibition of visible bacterial growth incubated for 18 hrs by broth-dilution method; format: functional
Staphylococcus aureus [16] = assay: Antimicrobial activity against methicillin-resistant Staphylococcus aureus 2 assessed as inhibition of visible bacterial growth incubated for 18 hrs by broth-dilution method; format: functional
Staphylococcus aureus [17] = assay: Antimicrobial activity against Staphylococcus aureus ATCC 25923 assessed as fold change in MIC in presence of salt solution; format: functional
Pseudomonas aeruginosa [18] = assay: Antibiofilm activity against Pseudomonas aeruginosa ATCC 27853 assessed as biofilm thickness at 8 microg/ml incubated for 24 hrs by confocal laser scanning microscopic analysis; format: functional; settings: dose 8 µg/ml
Staphylococcus aureus [19] = assay: Antimicrobial activity against methicillin-resistant Staphylococcus aureus 7 assessed as inhibition of visible bacterial growth incubated for 18 hrs by broth-dilution method; format: functional
Staphylococcus aureus [20] = assay: Antimicrobial activity against Staphylococcus aureus ATCC 25923 assessed as reduction in bacterial growth in presence of Ca2+; format: functional
Cell membrane [21] = assay: Disruption of membrane integrity in Pseudomonas aeruginosa ATCC 27853 incubated for 30 mins by PI staining based CLSM analysis
Pseudomonas aeruginosa [22] = assay: Antimicrobial activity against multidrug-resistant Pseudomonas aeruginosa 516 assessed as inhibition of visible bacterial growth incubated for 18 hrs by broth-dilution method; format: functional
Staphylococcus aureus [23] = assay: Antimicrobial activity against Staphylococcus aureus ATCC 25923 assessed as inhibition of visible bacterial growth incubated for 18 hrs by broth-dilution method; format: functional
Pseudomonas aeruginosa [24] = assay: Antibiofilm activity against Pseudomonas aeruginosa ATCC 27853 assessed as biofilm thickness at 1 times MIC90 incubated for 24 hrs by confocal laser scanning microscopic analysis; format: functional
Salmonella typhimurium = assay: Antimicrobial activity against Salmonella typhimurium ATCC 14028 assessed as inhibition of visible bacterial growth incubated for 18 hrs by broth-dilution method; format: functional, Salmonella enterica subsp. enterica serovar Typhimurium; settings: Salmonella enterica
Acinetobacter baumannii = assay: Antimicrobial activity against Acinetobacter baumannii ATCC 19606 assessed as inhibition of visible bacterial growth incubated for 18 hrs by broth-dilution method; format: functional
Cell membrane [25] = assay: Disruption of membrane integrity in Staphylococcus aureus ATCC 33591 incubated for 30 mins by PI staining based CLSM analysis; format: cell membranes
Pseudomonas aeruginosa [26] = assay: Antimicrobial activity against multidrug-resistant Pseudomonas aeruginosa 085 assessed as inhibition of visible bacterial growth incubated for 18 hrs by broth-dilution method; format: functional
Pseudomonas aeruginosa [27] = assay: Antimicrobial activity against Pseudomonas aeruginosa ATCC 27853 assessed as fold increase in MIC in presence of human serum; format: functional
Pseudomonas aeruginosa [28] = assay: Antimicrobial activity against multidrug-resistant Pseudomonas aeruginosa 119 assessed as inhibition of visible bacterial growth incubated for 18 hrs by broth-dilution method; format: functional
Pseudomonas aeruginosa [29] = assay: Antimicrobial activity against multidrug-resistant Pseudomonas aeruginosa 125 assessed as inhibition of visible bacterial growth incubated for 18 hrs by broth-dilution method; format: functional
[30] = tested on: Staphylococcus epidermidis; assay: Antimicrobial activity against Staphylococcus epidermidis ATCC 12228 assessed as inhibition of visible bacterial growth incubated for 18 hrs by broth-dilution method; format: functional
Staphylococcus aureus [31] = assay: Antimicrobial activity against methicillin-resistant Staphylococcus aureus 8 assessed as inhibition of visible bacterial growth incubated for 18 hrs by broth-dilution method; format: functional
Pseudomonas aeruginosa [32] = assay: Antibacterial activity against drug-susceptible Pseudomonas aeruginosa […] assessed as reduction in microbial growth; format: functional
Staphylococcus aureus [33] = assay: Antibiofilm activity against methicillin-resistant Staphylococcus aureus ATCC 33591 assessed as biofilm eradication at 4 times MIC incubated for 2 hrs by crystal violet staining based assay; format: functional, organism-based
[34] = tested on: Staphylococcus epidermidis; assay: Antibiofilm activity against Staphylococcus epidermidis ATCC 12228 assessed as inhibition of biofilm formation at 4 to 8 microg/ml incubated for 24 hrs by crystal violet staining based analysis; format: functional; settings: dose 4-8 µg/ml, at 4 to 8 µg/mL
Escherichia coli = assay: Antimicrobial activity against Escherichia coli ATCC 25922 assessed as inhibition of visible bacterial growth incubated for 18 hrs by broth-dilution method; format: functional
Staphylococcus aureus [35] = assay: Antimicrobial activity against methicillin-resistant Staphylococcus aureus 9 assessed as inhibition of visible bacterial growth incubated for 18 hrs by broth-dilution method; format: functional
Pseudomonas aeruginosa [36] = assay: Bactericidal activity against Pseudomonas aeruginosa ATCC 27853 at 1 to 4 times MIC by time-kill assay; format: functional, organism-based
Erythrocyte = assay: Hemolytic activity against mouse Red blood cell incubated for 1 hr; format: toxicity, cell-based
Staphylococcus aureus [37] = assay: Antimicrobial activity against methicillin-resistant Staphylococcus aureus ATCC 33591 assessed as reduction in bacterial growth in presence of human serum; format: functional
Bacillus subtilis = assay: Antimicrobial activity against Bacillus subtilis ATCC 23857 assessed as inhibition of visible bacterial growth incubated for 18 hrs by broth-dilution method; format: functional
Pseudomonas aeruginosa [38] = assay: Induction of intracellular ROS accumulation in Pseudomonas aeruginosa ATCC 27853 by DCFH-DA dye based fluorescence assay; format: functional, organism-based
Pseudomonas aeruginosa [39] = assay: Antimicrobial activity against multidrug-resistant Pseudomonas aeruginosa 156 assessed as inhibition of visible bacterial growth incubated for 18 hrs by broth-dilution method; format: functional

CC(C)C[C@@H](CN(CC(N)=O)S(=O)(=O)c1ccc(C(F)(F)F)cc1)NC(=O)[C@H](CCCCN)NC(=O)[C@H](CCCCN)NC(=O)[C@H](CC(C)C)NC(=O)[C@H](CC(C)C)NC(=O)[C@H](CCCCN)NC(=O)[C@H](CC(C)C)NC(=O)[C@@H](N)Cc1ccccc1 (H-FLKLLKK-X3)
MIC (Staphylococcus aureus [1]): 4 µg/mL (≈ 3.19 µM)
MIC (Pseudomonas aeruginosa [2]): 16 µg/mL (≈ 12.8 µM)
MIC (Pseudomonas aeruginosa [3]): 8 µg/mL (≈ 6.39 µM)
Activity (Pseudomonas aeruginosa [4]): inactive
Activity (Staphylococcus aureus [5]): Active
MIC (Staphylococcus aureus [6]): 8 µg/mL
MIC (Staphylococcus aureus [7]): 8 µg/mL (≈ 6.39 µM)
Activity (Pseudomonas aeruginosa [8]): Active
MIC (Staphylococcus aureus [9]): 4 µg/mL (≈ 3.19 µM)
MIC (Pseudomonas aeruginosa [10]): 8 µg/mL
MIC (Pseudomonas aeruginosa [11]): 8 µg/mL (≈ 6.39 µM)
Activity (Staphylococcus aureus [12]): Active
MIC (Pseudomonas aeruginosa [13]): 8 µg/mL (≈ 6.39 µM)
Activity (Staphylococcus aureus [14]): 40 um
MIC (Pseudomonas aeruginosa [15]): 8 µg/mL (≈ 6.39 µM)
MIC (Staphylococcus aureus [16]): 4 µg/mL (≈ 3.19 µM)
fold change (FC) (Staphylococcus aureus [17]): 0.25
Activity (Pseudomonas aeruginosa [18]): 20 um
MIC (Staphylococcus aureus [19]): 8 µg/mL (≈ 6.39 µM)
MIC (Staphylococcus aureus [20]): 32 µg/mL
Activity (Cell membrane [21]): Active
MIC (Pseudomonas aeruginosa [22]): 16 µg/mL (≈ 12.8 µM)
MIC (Staphylococcus aureus [23]): 4 µg/mL (≈ 3.19 µM)
Activity (Pseudomonas aeruginosa [24]): 40 um
MIC (Salmonella typhimurium): 16 µg/mL (≈ 12.8 µM)
MIC (Acinetobacter baumannii): 16 µg/mL (≈ 12.8 µM)
Activity (Cell membrane [25]): Active
MIC (Pseudomonas aeruginosa [26]): 16 µg/mL (≈ 12.8 µM)
fold change (FC) (Pseudomonas aeruginosa [27]): 2
MIC (Pseudomonas aeruginosa [28]): 8 µg/mL (≈ 6.39 µM)
MIC (Pseudomonas aeruginosa [29]): 16 µg/mL (≈ 12.8 µM)
MIC [30]: 4 µg/mL (≈ 3.19 µM)
MIC (Staphylococcus aureus [31]): 4 µg/mL (≈ 3.19 µM)
MIC (Pseudomonas aeruginosa [32]): 4 µg/mL
Activity (Staphylococcus aureus [33]): Active
inhibition (INH) [34]: 50%
MIC (Escherichia coli): 16 µg/mL (≈ 12.8 µM)
MIC (Staphylococcus aureus [35]): 8 µg/mL (≈ 6.39 µM)
Activity (Pseudomonas aeruginosa [36]): Active
MHC (Erythrocyte): 256 µg/mL
MIC (Staphylococcus aureus [37]): 8 µg/mL
MIC (Bacillus subtilis): 4 µg/mL (≈ 3.19 µM)
Activity (Pseudomonas aeruginosa [38]): Active
MIC (Pseudomonas aeruginosa [39]): 16 µg/mL (≈ 12.8 µM)

CC(C)C[C@H](N)CN(CC(=O)N[C@@H](CCCCN)C(=O)N[C@@H](CC(C)C)C(=O)N[C@@H](CC(C)C)C(=O)N[C@@H](CCCCN)C(=O)N[C@@H](CCCCN)C(=O)N[C@@H](CC(C)C)C(=O)N[C@@H](CC(C)C)C(N)=O)S(=O)(=O)c1ccc(C(F)(F)F)cc1 (X1-[X2]KLLKKLL-NH2)
MIC (Staphylococcus aureus [1]): 4 µg/mL (≈ 3.28 µM)
MIC (Pseudomonas aeruginosa [2]): 4 µg/mL (≈ 3.28 µM)
MIC (Pseudomonas aeruginosa [3]): 8 µg/mL (≈ 6.56 µM)
Activity (Pseudomonas aeruginosa [4]): inactive
Activity (Staphylococcus aureus [5]): Active
MIC (Staphylococcus aureus [6]): 8 µg/mL
MIC (Staphylococcus aureus [7]): 8 µg/mL (≈ 6.56 µM)
Activity (Pseudomonas aeruginosa [8]): Active
MIC (Staphylococcus aureus [9]): 4 µg/mL (≈ 3.28 µM)
MIC (Pseudomonas aeruginosa [10]): 8 µg/mL
MIC (Pseudomonas aeruginosa [11]): 4 µg/mL (≈ 3.28 µM)
Activity (Staphylococcus aureus [12]): Active
MIC (Pseudomonas aeruginosa [13]): 4 µg/mL (≈ 3.28 µM)
Activity (Staphylococcus aureus [14]): 40 um
MIC (Pseudomonas aeruginosa [15]): 4 µg/mL (≈ 3.28 µM)
MIC (Staphylococcus aureus [16]): 4 µg/mL (≈ 3.28 µM)
fold change (FC) (Staphylococcus aureus [17]): 0.25
Activity (Pseudomonas aeruginosa [18]): 20 um
MIC (Staphylococcus aureus [19]): 4 µg/mL (≈ 3.28 µM)
MIC (Staphylococcus aureus [20]): 32 µg/mL
Activity (Cell membrane [21]): Active
MIC (Pseudomonas aeruginosa [22]): 4 µg/mL (≈ 3.28 µM)
MIC (Staphylococcus aureus [23]): 4 µg/mL (≈ 3.28 µM)
Activity (Pseudomonas aeruginosa [24]): 40 um
MIC (Salmonella typhimurium): 8 µg/mL (≈ 6.56 µM)
MIC (Acinetobacter baumannii): 16 µg/mL (≈ 13.1 µM)
Activity (Cell membrane [25]): Active
MIC (Pseudomonas aeruginosa [26]): 8 µg/mL (≈ 6.56 µM)
fold change (FC) (Pseudomonas aeruginosa [27]): 2
MIC (Pseudomonas aeruginosa [28]): 8 µg/mL (≈ 6.56 µM)
MIC (Pseudomonas aeruginosa [29]): 8 µg/mL (≈ 6.56 µM)
MIC [30]: 4 µg/mL (≈ 3.28 µM)
MIC (Staphylococcus aureus [31]): 4 µg/mL (≈ 3.28 µM)
MIC (Pseudomonas aeruginosa [32]): 4 µg/mL
Activity (Staphylococcus aureus [33]): Active
inhibition (INH) [34]: 50%
MIC (Escherichia coli): 16 µg/mL (≈ 13.1 µM)
MIC (Staphylococcus aureus [35]): 8 µg/mL (≈ 6.56 µM)
Activity (Pseudomonas aeruginosa [36]): Active
MHC (Erythrocyte): 256 µg/mL
MIC (Staphylococcus aureus [37]): 8 µg/mL
MIC (Bacillus subtilis): 4 µg/mL (≈ 3.28 µM)
Activity (Pseudomonas aeruginosa [38]): Active
MIC (Pseudomonas aeruginosa [39]): 4 µg/mL (≈ 3.28 µM)
